# Legend:
# [1] = Antiproliferative activity in mouse BAF3 cells after 72 hrs by CCK8 assay; format: cell-based
# [2] = biological target: Bcr/Abl fusion protein (Homo sapiens) (UniProt P00519+P11274); details: BaF3
# Description: Inhibition of wild type BCR/ABL (unknown origin) transfected in mouse BAF3 cells assessed as growth inhibition after 72 hrs by CCK8 assay
# [3] = test system: Bcr/Abl fusion protein (Homo sapiens), P00519+P11274 [T315I]; details: BaF3
# K562 = assay: Antiproliferative activity in human K562 cells after 72 hrs by CCK8 assay; format: functional; details: K562, 72 h
# KU812 cell line = assay: Antiproliferative activity in human KU812 cells after 72 hrs by CCK8 assay; format: functional; details: KU812, 72 h
# MEG-01 = assay: Antiproliferative activity in human MEG01 cells after 72 hrs by CCK8 assay; format: functional; details: MEG-01, 72 h
# MEC1 = assay: Antiproliferative activity in human MEC1 cells after 72 hrs by CCK8 assay; format: functional; details: MEC1, 72 h
# HL-60 = assay: Antiproliferative activity in human HL60 cells after 72 hrs by CCK8 assay; format: functional; details: HL-60, 72 h
# OCI-AML2 = assay: Antiproliferative activity in human OCI-AML2 cells after 72 hrs by CCK8 assay; format: functional; details: OCI-AML2, 72 h
# U-937 = assay: Antiproliferative activity in human U937 cells after 72 hrs by CCK8 assay; format: functional; details: U-937, 72 h
# [4] = Antiproliferative activity in CHO cells after 72 hrs by CCK8 assay; format: cell-based, Cricetulus griseus; details: chinese hamster
# BaF3 = assay: Antitumor activity against mouse BAF3 cells expressing BCR/ABL T315I mutant allografted in nu/nu mouse assessed as tumor weight at 100 mg/kg, po administered via gavage measured for 14 days (reference value: 2.78 g); format: functional
# [5] = Selectivity ratio of GI50 for mouse BAF3 cells to GI50 for BCR/ABL T315I mutant (unknown origin) transfected in mouse BAF3 cells
# [6] = Selectivity ratio of GI50 for mouse BAF3 cells to GI50 for wild type BCR/ABL (unknown origin) transfected in mouse BAF3 cells
# Chain of Bcr/Abl fusion protein (Homo sapiens) (P00519 whole entry, looked up, the tested form may be a part): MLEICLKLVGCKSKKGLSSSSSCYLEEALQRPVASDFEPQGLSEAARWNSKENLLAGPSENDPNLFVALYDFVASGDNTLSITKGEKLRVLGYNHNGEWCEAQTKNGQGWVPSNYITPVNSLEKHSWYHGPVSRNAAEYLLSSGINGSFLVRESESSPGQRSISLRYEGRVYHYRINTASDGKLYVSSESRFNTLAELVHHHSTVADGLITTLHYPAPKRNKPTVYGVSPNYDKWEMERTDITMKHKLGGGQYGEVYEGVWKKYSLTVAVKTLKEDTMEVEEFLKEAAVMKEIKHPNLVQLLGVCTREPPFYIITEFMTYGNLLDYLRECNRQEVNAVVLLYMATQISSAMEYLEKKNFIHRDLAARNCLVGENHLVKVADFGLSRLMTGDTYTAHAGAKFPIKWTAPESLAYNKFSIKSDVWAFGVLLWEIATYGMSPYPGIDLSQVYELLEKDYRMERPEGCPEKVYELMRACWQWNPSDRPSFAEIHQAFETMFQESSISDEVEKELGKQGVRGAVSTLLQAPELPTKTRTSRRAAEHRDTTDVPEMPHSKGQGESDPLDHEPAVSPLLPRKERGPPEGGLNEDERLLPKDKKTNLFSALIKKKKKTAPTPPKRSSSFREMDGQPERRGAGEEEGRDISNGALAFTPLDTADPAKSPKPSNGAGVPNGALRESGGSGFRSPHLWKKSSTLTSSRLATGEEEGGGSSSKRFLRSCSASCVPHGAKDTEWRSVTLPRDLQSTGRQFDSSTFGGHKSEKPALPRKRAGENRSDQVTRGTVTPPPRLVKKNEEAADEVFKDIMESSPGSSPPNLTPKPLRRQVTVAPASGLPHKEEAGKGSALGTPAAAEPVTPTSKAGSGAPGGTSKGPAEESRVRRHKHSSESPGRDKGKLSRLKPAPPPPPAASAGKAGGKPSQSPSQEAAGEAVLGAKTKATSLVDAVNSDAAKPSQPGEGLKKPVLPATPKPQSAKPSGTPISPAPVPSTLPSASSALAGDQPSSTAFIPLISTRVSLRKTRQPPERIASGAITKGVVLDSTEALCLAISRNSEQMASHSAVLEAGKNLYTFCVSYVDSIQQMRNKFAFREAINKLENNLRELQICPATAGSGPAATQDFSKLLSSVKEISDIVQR
# Chain of Bcr/Abl fusion protein (Homo sapiens) (P11274 whole entry, looked up, the tested form may be a part): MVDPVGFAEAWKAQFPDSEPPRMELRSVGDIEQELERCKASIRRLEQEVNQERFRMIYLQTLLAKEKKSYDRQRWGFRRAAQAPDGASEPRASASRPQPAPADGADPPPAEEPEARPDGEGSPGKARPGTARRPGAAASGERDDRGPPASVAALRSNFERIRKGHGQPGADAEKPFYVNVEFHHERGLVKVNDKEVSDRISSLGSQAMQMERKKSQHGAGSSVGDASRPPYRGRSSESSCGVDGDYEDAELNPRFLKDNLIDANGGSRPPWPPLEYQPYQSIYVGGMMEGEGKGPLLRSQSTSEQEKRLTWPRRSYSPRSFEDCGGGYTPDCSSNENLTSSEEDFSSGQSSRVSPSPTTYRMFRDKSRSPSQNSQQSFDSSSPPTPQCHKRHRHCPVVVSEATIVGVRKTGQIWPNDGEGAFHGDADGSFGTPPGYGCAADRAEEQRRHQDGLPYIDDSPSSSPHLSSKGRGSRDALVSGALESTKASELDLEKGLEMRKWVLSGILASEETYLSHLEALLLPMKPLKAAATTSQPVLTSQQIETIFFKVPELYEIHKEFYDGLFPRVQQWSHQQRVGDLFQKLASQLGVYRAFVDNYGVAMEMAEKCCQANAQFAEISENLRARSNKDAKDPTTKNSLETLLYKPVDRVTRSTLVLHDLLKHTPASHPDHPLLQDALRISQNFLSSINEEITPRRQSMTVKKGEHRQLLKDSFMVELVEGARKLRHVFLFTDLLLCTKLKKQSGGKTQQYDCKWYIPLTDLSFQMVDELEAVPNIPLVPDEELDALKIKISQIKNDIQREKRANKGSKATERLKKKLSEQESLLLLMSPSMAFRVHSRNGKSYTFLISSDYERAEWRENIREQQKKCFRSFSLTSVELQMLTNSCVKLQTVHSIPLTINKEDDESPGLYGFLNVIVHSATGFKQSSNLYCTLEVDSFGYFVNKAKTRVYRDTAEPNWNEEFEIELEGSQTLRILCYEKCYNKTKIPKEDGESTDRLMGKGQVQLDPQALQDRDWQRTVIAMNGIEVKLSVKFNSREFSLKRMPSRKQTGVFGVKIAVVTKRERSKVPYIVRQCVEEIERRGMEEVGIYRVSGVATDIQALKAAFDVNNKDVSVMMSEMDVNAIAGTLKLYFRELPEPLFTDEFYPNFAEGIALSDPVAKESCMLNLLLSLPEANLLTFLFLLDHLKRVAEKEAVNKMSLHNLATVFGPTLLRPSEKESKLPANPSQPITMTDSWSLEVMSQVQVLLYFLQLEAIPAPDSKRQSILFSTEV
SMILES,GI50 at 72 h [1] [µM],GI50 [2] [µM],GI50 [3] [µM],other results
O=C(NCCSc1ccc2c(/C=C/c3ccccn3)n[nH]c2c1)c1cccc(C(F)(F)F)c1,1.5,2.72,1.62,–
Cc1ccc(NC(=O)c2ccc(CN3CCN(C)CC3)cc2)cc1Nc1nccc(-c2cccnc2)n1 [IMATINIB],> 10,–,–,GI50 (K562): 0.25 µM; GI50 (KU812 cell line): 0.31 µM; GI50 (MEG-01): 0.28 µM; GI50 (MEC1): > 10 µM; GI50 (HL-60): > 10 µM; GI50 (OCI-AML2): > 10 µM; GI50 (U-937): > 10 µM; GI50 at 72 h [4]: > 10 µM; Activity (BaF3): 3.36 g
CN1CCN(Cc2ccc(C(=O)NCCSc3ccc4c(/C=C/c5ccccn5)n[nH]c4c3)cc2C(F)(F)F)CC1,4.8,0.75,0.93,–
CN(C)c1cccc(NC(=O)CCSc2ccc3c(/C=C/c4ccccn4)n[nH]c3c2)c1,> 10,9.67,5.52,–
O=C(NCCCSc1ccc2c(/C=C/c3ccccn3)n[nH]c2c1)c1cccc(C(F)(F)F)c1,0.98,0.5,0.65,–
CN1CCN(Cc2ccc(C(=O)NCCCSc3ccc4c(/C=C/c5ccccn5)n[nH]c4c3)cc2C(F)(F)F)CC1,4.4,0.022,0.33,–
Cc1ccc(NC(=O)CCSc2ccc3c(/C=C/c4ccccn4)n[nH]c3c2)cc1,> 10,2.87,4.49,–
Cc1n[nH]c2cc(SCCC(=O)Nc3ccc(CN4CCN(C)CC4)c(C(F)(F)F)c3)ccc12,3.9,0.33,0.17,–
COc1ccc(NC(=O)CCSc2ccc3c(/C=C/c4ccccn4)n[nH]c3c2)cc1C(F)(F)F,> 10,0.59,0.86,–
CN(C)CCN(C)Cc1ccc(NC(=O)CCSc2ccc3c(/C=C/c4ccccn4)n[nH]c3c2)cc1C(F)(F)F,1.85,0.11,0.11,–
O=C(CCSc1ccc2c(/C=C/c3ccccn3)n[nH]c2c1)Nc1cccc(Cl)c1,9.35,1.56,2.91,–
CN1CCN(Cc2ccc(NC(=O)CCSc3ccc4c(-c5cccnc5)n[nH]c4c3)cc2C(F)(F)F)CC1,2.65,0.07,0.058,–
O=C(CCSc1ccc2c(/C=C/c3ccccn3)n[nH]c2c1)NCc1cccc(C(F)(F)F)c1,8.03,3.39,7.05,–
O=C(CCSc1ccc2c(/C=C/c3ccccn3)n[nH]c2c1)Nc1ccc(CN2CCOCC2)c(C(F)(F)F)c1,3.97,0.16,0.21,–
Cc1cccc(NC(=O)CCSc2ccc3c(/C=C/c4ccccn4)n[nH]c3c2)c1,> 10,3.15,4.03,–
Cc1ccc(NC(=O)CCSc2ccc3c(/C=C/c4ccccn4)n[nH]c3c2)cc1C(F)(F)F,0.53,0.16,0.088,–
O=C(NCCSc1ccc2c(/C=C/c3ccccn3)n[nH]c2c1)Nc1cccc(C(F)(F)F)c1,3,2.74,2.06,–

SMILES,GI50 at 72 h [1] [µM],GI50 [2] [µM],GI50 [3] [µM],other results
CNC(=O)c1ccccc1Sc1ccc2c(/C=C/c3ccccn3)n[nH]c2c1 [AXITINIB],1.64,–,–,GI50 (K562): 0.94 µM; GI50 (KU812 cell line): 0.5 µM; GI50 (MEG-01): 0.97 µM; GI50 (MEC1): 1.54 µM; GI50 (HL-60): 6.78 µM; GI50 (OCI-AML2): 2.36 µM; GI50 (U-937): 1.98 µM; GI50 at 72 h [4]: > 10 µM
O=C(CCSc1ccc2c(/C=C/c3ccccn3)n[nH]c2c1)Nc1ccccc1,0.69,0.5,0.51,–
CN1CCN(Cc2ccc(NC(=O)NCCSc3ccc4c(/C=C/c5ccccn5)n[nH]c4c3)cc2C(F)(F)F)CC1,3.1,0.18,0.24,–
CNC(=O)CCSc1ccc2c(/C=C/c3ccccn3)n[nH]c2c1,> 10,> 10,> 10,–
CN1CCN(c2cccc(NC(=O)CCSc3ccc4c(/C=C/c5ccccn5)n[nH]c4c3)c2)CC1,> 10,8.24,8.18,–
CN1CCN(Cc2ccc(NC(=O)CCSc3ccc4c(-c5ccccc5)n[nH]c4c3)cc2C(F)(F)F)CC1,0.6,0.032,0.11,–
CCN1CCN(Cc2ccc(NC(=O)CCSc3ccc4c(/C=C/c5ccccn5)n[nH]c4c3)cc2C(F)(F)F)CC1,0.84,0.004,0.004,RatioGI50 [5]: 200; RatioGI50 [6]: 200
O=C(CCSc1ccc2c(/C=C/c3ccccn3)n[nH]c2c1)Nc1cccc(C(F)(F)F)c1,2.3,0.9,0.28,–
O=C(CCSc1ccc2c(/C=C/c3ccccn3)n[nH]c2c1)Nc1ccc(CN2CCCC2)c(C(F)(F)F)c1,4,0.15,0.12,–
O=C(CCSc1ccc2c(/C=C/c3ccccn3)n[nH]c2c1)Nc1ccc(F)c(C(F)(F)F)c1,0.61,0.3,0.12,–
COc1cccc(NC(=O)CCSc2ccc3c(/C=C/c4ccccn4)n[nH]c3c2)c1,3.84,3.22,3.21,–
O=C(CCSc1ccc2c(/C=C/c3ccccn3)n[nH]c2c1)Nc1cccc(F)c1,6.59,1.51,1.99,–
CN1CCN(Cc2ccc(NC(=O)CCSc3ccc4c(-c5cnn(C)c5)n[nH]c4c3)cc2C(F)(F)F)CC1,1.4,0.015,0.02,–
CC1CCN(Cc2ccc(NC(=O)CCSc3ccc4c(/C=C/c5ccccn5)n[nH]c4c3)cc2C(F)(F)F)CC1,4.17,1.98,1.75,–
O=C(CCSc1ccc2c(/C=C/c3ccccn3)n[nH]c2c1)Nc1ccc(Cl)c(C(F)(F)F)c1,> 10,2.71,2.67,–
Cc1ccc(-c2n[nH]c3cc(SCCC(=O)Nc4ccc(CN5CCN(C)CC5)c(C(F)(F)F)c4)ccc23)cn1,1.18,0.091,0.049,–
CN1CCN(Cc2ccc(NC(=O)CCSc3ccc4c(-c5ccncc5)n[nH]c4c3)cc2C(F)(F)F)CC1,1.06,0.038,0.018,–

# From ChEMBL document CHEMBL4382204 (Eur J Med Chem, 2018)
